Test results as given in US20230044979A1, “ANIMAL CELL CULTURING METHOD” (AJINOMOTO CO., INC., priority 2020, published 2023).

Key:
[1] = Stability of L-cysteine derivatives in feed medium (crystal precipitation by visual observation); format: physicochemical; conditions: for crystal precipitation, Days 0 / crystal precipitation, Days 1 / crystal precipitation, Days 7 / crystal precipitation, Days 22 / crystal precipitation, Days 30: stored at 5° C. in the dark; for crystal precipitation, Days 0: day 0; for crystal precipitation, Days 1: day 1; for crystal precipitation, Days 7: day 7; for crystal precipitation, Days 22: day 22; for crystal precipitation, Days 30: day 30
Method: In this Example, the stability of L-cysteine derivatives in a feed medium was evaluated. As the L-cysteine derivatives, Compounds 1 and 2 were used.
A feed medium containing 82 g/L Cellvento (registered trademark) Feed-210 (Merck: 1.02488.0005), 70 g/L glucose (Wako Pure Chemical Industries, Ltd.: 043-31163), and 58 mM L-cysteine, 58 mM Compound 1, or 58 mM Compound 2, and a feed medium without addition of L-cysteine, which only contained 82 g/L Cellvento (registered trademark) Feed-210 and 70 g/L glucose were prepared at pH 5.2 to 5.6, which are described in the instruction of Feed-210, and at pH 7.0, which is a neutral pH condition used for usual cultivation, to obtain 8 kinds of feed media in total. All of the feed media were prepared as transparent solutions.
After each of the feed media was stored at 5° C. in the dark, crystal precipitation was confirmed by visual observation. […] In the table, “+” to “++++” indicate that crystal precipitation was observed, and the higher the number of “+”, the greater the degree of precipitation. Under the addition condition, significant precipitation was observed from one week after the start of storage. Under the condition of adding Compound 2, precipitation was observed from 22 days after the start of storage.

[2] = test system: CHO cells modified to produce a monoclonal antibody; assay: Effect of addition of L-cysteine derivatives to feed medium on proliferation of CHO cells and antibody production (1); format: cell-based, Chinese hamster; conditions: for antibody production amount: 14.5, 29 or 58 mM in feed medium, fed on days 4, 7, 9, 11, 14 days culture, FIG. 3
Method: In this Example, an effect of addition of L-cysteine derivatives to a feed medium on proliferation of CHO cells and antibody production was evaluated. As the L-cysteine derivatives, Compounds 1 and 2 were used. As the CHO cells, CHO cells modified to produce a monoclonal antibody were used.
CELLiST (registered trademark) Basal media (Ajinomoto Co., Ltd.: BASAL3; containing 1.3 mM L-cysteine) was added with LR3-IGF-1 (SIGMA-ALDRICH: I1271-1MG, final concentration of 50 μg/mL) and L-Glutamine (Thermo Fisher SCIENTIFIC: 25030081, final concentration of 6 mM), to prepare a basal medium.
Feed media (9 kinds in total) each containing 82 g/L Cellvento (registered trademark) Feed-210 (Merck: 1.02488.0005), 70 g/L glucose (Wako Pure Chemical Industries, Ltd.: 043-31163), and L-cysteine, Compound 1, or Compound 2 each at 14.5 mM, 29 mM, or 58 mM were prepared. In addition, a feed medium without addition of L-cysteine, which only contained 82 g/L Cellvento (registered trademark) Feed-210 and 70 g/L glucose, was prepared. Separately, a tyrosine concentrate (L-tyrosine disodium salt dihydrate (Merck: 122666-87-9) 149.64 g/L, pH 11.3) was prepared.
A 30 mL-aliquot of a CHO cell suspension adjusted to 3×10^5 cells/mL using the prepared basal medium was seeded into 125 mL-volume flasks (CORNING: 431143), and cultured for 14 days. The culture was carried out with n=2 for all experimental groups. The culture temperature was 37° C. and the agitation speed was 110 rpm. A 1.8 mL-aliquot of each of the prepared feed media and a 60 μL-aliquot of the tyrosine concentrate were added on days 4, 7, 9, and 11 from the start of the culture. A cell culture broth was sampled on days 4, 7, 9, 11, and 14 from the start of the culture, and the viable cell count was measured using a viable/dead cells autoanalyzer Vi-CELL™ XR (Beckman Coulter), and the antibody production amount was measured using Octet QK (FORTEBIO).

[3] = test system: CHO cells modified to produce a monoclonal antibody; assay: Effect of addition of L-cysteine derivatives to basal medium on proliferation of CHO cells; format: cell-based, Chinese hamster; conditions: for use as an alternative for L-cysteine in the basal medium: 1.3 mM in basal medium; for proliferation of cells (viable cell count): 1.3 mM in basal medium otherwise without L-cysteine, day 7 of culture, FIG. 1
Method: In this Example, an effect of addition of L-cysteine derivatives to a basal medium on proliferation of CHO cells was evaluated. As the L-cysteine derivatives, (2RS,4R)-2-methyl-2,4-thiazolidinedicarboxylic acid 2-ethyl ester (hereinafter, also referred to as “Compound 1”) and (2RS,4R)-2-methyl-2,4-thiazolidinedicarboxylic acid (hereinafter, also referred to as “Compound 2”) were used. As the CHO cells, CHO cells modified to produce a monoclonal antibody were used.
CELLiST (registered trademark) Basal media (Ajinomoto Co., Ltd.: BASAL3) without L-cysteine was prepared, to obtain a culture medium without addition of L-cysteine. The culture medium without addition of L-cysteine was added with L-cysteine, Compound 1, or Compound 2, to prepare a culture medium containing 1.3 mM L-cysteine, 1.3 mM Compound 1, or 1.3 mM Compound 2. Each culture medium was added with LR3-IGF-1 (SIGMA-ALDRICH: I1271-1MG, final concentration of 50 μg/mL) and L-Glutamine (Thermo Fisher SCIENTIFIC: 25030081, final concentration of 6 mM), to prepare a basal medium.
A 3 mL-aliquot of a CHO cell suspension adjusted to 3×10^5 cells/mL using the prepared basal medium was seeded into a 6 well plate (CORNING: 3471), and cultured for 11 days. The culture was carried out with n=3 for all experimental groups. The culture temperature was 37° C. and the agitation speed was 110 rpm. A cell culture broth was sampled on days 7 and 11 from the start of the culture, and the viable cell count was measured using a viable/dead cells autoanalyzer Vi-CELL™ XR (Beckman Coulter).

[4] = Stability of L-cysteine derivatives in buffer solution (crystal precipitation by visual observation); format: physicochemical; conditions: 58 mM in PBS buffer pH 7.0 to 7.2; for crystal precipitation, Days 0 / crystal precipitation, Days 3 / crystal precipitation, Days 7 / crystal precipitation, Days 14 / crystal precipitation, Days 21 / crystal precipitation, Days 24: stored at 5° C. in the dark; for crystal precipitation, Days 0: day 0; for crystal precipitation, Days 3: day 3; for crystal precipitation, Days 7: day 7; for crystal precipitation, Days 14: day 14; for crystal precipitation, Days 21: day 21; for crystal precipitation, Days 24: day 24
Method: In this Example, the stability of L-cysteine derivatives in a buffer solution was evaluated.
In the table, “+” to “++++” indicate that crystal precipitation was observed, and the higher the number of “+”, the greater the degree of precipitation.

[5] = 58 mM in feed medium pH 5.2 to 5.6
[6] = 58 mM in feed medium, 5° C. in the dark

Compound | crystal precipitation, Days 0 [1, 5] | crystal precipitation, Days 1 [1, 5] | crystal precipitation, Days 7 [1, 5] | crystal precipitation, Days 22 [1, 5] | crystal precipitation, Days 30 [1, 5] | crystal precipitation, Days 0 ([1]; 58 mM in feed medium pH 7) | crystal precipitation, Days 1 ([1]; 58 mM in feed medium pH 7) | crystal precipitation, Days 7 ([1]; 58 mM in feed medium pH 7) | crystal precipitation, Days 22 ([1]; 58 mM in feed medium pH 7) | crystal precipitation, Days 30 ([1]; 58 mM in feed medium pH 7) | antibody production amount [2] | use as an alternative for L-cysteine in the basal medium [3] | proliferation of cells (viable cell count) [3] | relative stability compared with L-cysteine ([4]; 5° C. in the dark) | crystal precipitation, Days 0 [4] | crystal precipitation, Days 3 [4] | crystal precipitation, Days 7 [4] | crystal precipitation, Days 14 [4] | crystal precipitation, Days 21 [4] | crystal precipitation, Days 24 [4] | further results
CC1(C(=O)O)N[C@H](C(=O)O)CS1 (mixture of isomers) [Compound 2, (2RS,4R)-2-methyl-2,4-thiazolidinedicarboxylic acid] | − | − | − | + | +++ | − | − | − | ++ | +++ | almost equivalent to that of the experimental group of L-cysteine | able to be used as an alternative for L-cysteine | almost equivalent to that of the experimental group using L-cysteine | more stable than L-cysteine | − | − | − | − | − | − | precipitation observed from (after the start of storage) [1, 6]: 22 days
CCOC(=O)C1(C)N[C@H](C(=O)O)CS1 (mixture of isomers) [Compound 1, (2RS,4R)-2-methyl-2,4-thiazolidinedicarboxylic acid 2-ethyl ester] | − | − | − | − | − | − | − | − | − | − | almost equivalent to that of the experimental group of L-cysteine | unable to substitute the whole of L-cysteine in the basal medium | no proliferation of cells was observed | more stable than L-cysteine | − | − | − | − | − | − | relative stability in the culture medium [1, 6]: more stable than Compound 2; crystal precipitation on storage, in words ([1]; 58 mM in feed medium, 5° C. in the dark, up to 30 days after the start of storage): no crystal precipitation was observed; use as an alternative for L-cysteine in the feed medium ([2]; in feed medium, basal medium containing 1.3 mM L-cysteine): able to be used as an alternative for L-cysteine in the feed medium
Cl.N[C@@H](CS)C(=O)O.O [L-cysteine, L-cysteine hydrochloride monohydrate] | − | − | +++ | +++ | +++ | − | − | +++ | +++ | +++ |  |  | Proliferation of cells was observed |  | − | ++ | +++ | +++ | +++ | +++ | significant precipitation observed from (after the start of storage) ([4]; 5° C. in the dark): 3 days
